According to patent US5658916A, “Drug active on the central nervous system, a process for the preparation thereof and pharmaceutical compositions containing it” (Vita-Invest, S.A., priority 1994, dated 1997):
Like-named read-outs stand apart in the source and are kept apart here.

What was measured:
[1] = biological target: T1, D2 receptors (Rattus norvegicus, UniProt P61169); assay: Displacement of 3H-spiroperidol binding to D2 receptors (striate tissue of rat brain)
T1 construct: Striate tissue of rat brain was prepared; from tissue; host or cells: rat brain striatum, crude membrane homogenate
T1 sequence (P61169 whole entry): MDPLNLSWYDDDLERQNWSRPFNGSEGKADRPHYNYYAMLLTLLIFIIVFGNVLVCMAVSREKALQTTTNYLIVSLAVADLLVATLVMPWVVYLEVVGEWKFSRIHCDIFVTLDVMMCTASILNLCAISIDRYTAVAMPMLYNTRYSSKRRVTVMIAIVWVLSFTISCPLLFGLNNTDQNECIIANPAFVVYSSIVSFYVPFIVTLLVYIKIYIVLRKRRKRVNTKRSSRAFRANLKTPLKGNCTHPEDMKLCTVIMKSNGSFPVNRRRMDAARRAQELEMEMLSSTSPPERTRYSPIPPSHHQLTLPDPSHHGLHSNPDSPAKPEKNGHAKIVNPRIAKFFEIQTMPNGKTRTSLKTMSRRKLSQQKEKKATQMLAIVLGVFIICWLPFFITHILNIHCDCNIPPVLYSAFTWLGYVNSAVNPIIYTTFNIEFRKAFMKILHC
Method: Studies on binding to D2 receptors.
These were carried out as described by Leysen et al (1978), with certain modifications. Striate tissue of rat brain was prepared, with homogenization in 20 volumes of Tris-HCl buffer in ice (50 mM, pH=7.7, 4° C.), The homogenate was centrifuged (40,000 g, 10 min) and the pellet was suspended in 10 volumes of cold buffer and recentrifuged. The final pellet was suspended in 10 volumes of 50 mM Tris-HCl buffer, with 120 mM of NaCl and 5 mM of […] (pH=7.7). The displacement studies were carried out with 25 μl of ^3 H-spiroperidol (0.2 nM, NEN), 25 μl of cold displacer and 200 μl of tissue. The incubation (37° C., 15 min) was terminated by rapid filtering through Whatman GF/C filters.

[2] = biological target: T2, 5HT2 receptors (Rattus norvegicus, UniProt P14842); assay: Displacement of 3H-ketanserine binding to 5HT2 receptors (front cortex of rat brain); settings: 3H-ketanserine 0.5 nM, 37° C., 15 min
T2 construct: Front cortex of rat brain was prepared; from tissue; host or cells: rat brain frontal cortex, crude membrane homogenate
T2 sequence (P14842 whole entry): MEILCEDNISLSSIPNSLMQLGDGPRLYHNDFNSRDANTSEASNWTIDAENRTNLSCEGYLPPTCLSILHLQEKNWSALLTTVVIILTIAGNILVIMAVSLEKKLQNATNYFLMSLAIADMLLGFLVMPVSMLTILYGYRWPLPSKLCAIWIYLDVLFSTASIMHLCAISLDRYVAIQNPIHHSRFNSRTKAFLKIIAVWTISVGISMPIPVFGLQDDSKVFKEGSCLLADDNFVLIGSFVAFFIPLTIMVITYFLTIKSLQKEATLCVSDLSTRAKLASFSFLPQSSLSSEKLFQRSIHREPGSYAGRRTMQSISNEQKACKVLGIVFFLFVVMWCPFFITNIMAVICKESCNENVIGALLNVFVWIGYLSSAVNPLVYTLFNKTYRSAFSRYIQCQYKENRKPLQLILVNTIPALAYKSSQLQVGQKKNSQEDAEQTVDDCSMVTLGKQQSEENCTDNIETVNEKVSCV
Method: These were carried out as described by Leysen et al (1978), with certain modifications. […] The incubation (37° C., 15 min) was terminated by rapid filtering through Whatman GF/C filters.

[3] = biological target: α1-adrenergic receptors; assay: Displacement of 3H-prazosin binding to α1-adrenergic receptors (rat brain cortex); settings: read-out: Displacement (Ki, nM) of the binding of 3H-prazosin to α1-adrenergic receptors, 3H-prazosin 0.5 nM, 37° C., 15 min, pH 7.7
Method: Binding to at adrenergen receptors
These were carried out as described by Morrow et al . […] Rat brain cortical tissue was obtained, with homogenization in 20 volumes of Tris-HCl buffer in ice (50 mM, pH=7.7, 4° C.). The homogenate was centrifuged (25,000 rpm/12 min at 4° C.) and the pellet was rehomogenized, being finally resuspended in 50 mM Tris-HCl buffer, pH=7.7 (dilution 1:200). […] The incubation (37° C., 15 min) was terminated by rapid filtering through Whatman GF/C filters, followed by washing twice with […] of Tris-HCl buffer, 50 mM.

Compound	Ki [1]	Ki [2]	Ki [3]	Ki ([1]; striate rat tissue, 3H-spiroperidol 0.2 nM, 37° C., 15 min, pH 7.7)
Cc1nc2n(c(=O)c1CCN1CC=C(c3noc4cc(F)ccc34)CC1)CCCC2 [Compound I, 3-{2-[4-(6-fluoro-benzo[d]isoxazol-3-yl)-3,6-dihydro-2H-pyridin-1-yl]-ethyl}-2-methyl-6,7,8,9-tetrahydropyrido[1,2-a]-pyrimidin-4-one]	0.022 µM	0.0017 µM	14.6 nM	–
Cc1nc2sccn2c(=O)c1CCN1CCC(=C(c2ccc(F)cc2)c2ccc(F)cc2)CC1 [Ritanserine, reference compound]	–	–	29.6 nM	0.0477 µM
